What was measured:
human Cx26 hemichannels = target: T1, human Cx26 hemichannels (Homo sapiens, UniProt P29033); experiment: Cx26-dependent growth complementation assay in LB2003 cells; format: cell-based; settings: for Reduction of Cx26-dependent growth complementation: 100 μM aminoglycoside
T1 construct: Details of the human Cx26, Cx43, and Cx46 DNAs used to transform LB2003 cells have been published; expressed in transfected cells; host or cells: E. coli LB2003 (with pREP4), IPTG-induced from pQE60
Method: (§1) We then tested all AGs in Figure 4 for inhibition of connexin-dependent growth in AG-resistant LB2003 cells transformed with the pREP4 plasmid.
(§2) Basically, freshly prepared competent LB2003 containing the pREP4 plasmid were transformed with pQE60 (empty plasmid; negative control), pQE-Cx26 (human Cx26 DNA into pQE60), pQE-Cx43 (human Cx43 into pQE60) or pQE-Cx46 (human Cx46 into pQE60). After growing overnight in Luria-Bertani (LB) medium (BD, Franklin Lakes, NJ, USA) supplemented with 100 mM KCl (to allow growth) and 0.4 mg/mL ampicillin, the cells were washed four times with NLM, to remove residual potassium from the LB medium, and were resuspended in complementation growth medium to an OD600 of 0.2. NLM contained 46 mM Na2HPO4, 23 mM NaH2PO4, 8 mM (NH4)2SO4, 0.4 mM MgSO4, 0.012 mM FeSO4, 1 mM sodium citrate, 44 mM glucose, and 0.006 mM thiamine hydrochloride, pH 7.0. KLM was identical to NLM except for the equimolar replacement of Na^+ with K^+. For growth-complementation by Cx26, Cx43, and Cx46 in low-[K^+] medium we used NLM + 4 mM KCl, NLM + 8 mM KCl, and NLM + 16 mM KCl, respectively. Expression of Cx26 was induced with 0.5 mM IPTG (GoldBio, St. Louis, MO, USA) at the time of dilution to OD600 = 0.2. For growth-complementation by Cx43 and Cx46, we used 10 µM IPTG. Transformed cells in the appropriate growth medium were seeded in 24- or 96-well plates, and the plates were incubated at 30 °C, with shaking at 250 and 500 rpm, respectively. OD600 was measured after 18 h manually for the 24-well plates or in a plate reader for the 96-well plates (Falcon 353072, Corning Inc., Corning, NY, USA). The initial OD600 = 0.2 was subtracted for growth calculations.

human Cx43 hemichannels = target: T2, human Cx43 hemichannels (Homo sapiens, UniProt P17302); experiment: Cx43-dependent growth complementation assay in LB2003 cells; format: cell-based; settings: for IC50: LB2003-pREP4 cells, NLM + 8 mM KCl, 10 µM IPTG, OD600 after 18 h, mean ± SEM
T2 construct: Details of the human Cx26, Cx43, and Cx46 DNAs used to transform LB2003 cells have been published; expressed in transfected cells; host or cells: E. coli LB2003 (with pREP4), IPTG-induced from pQE60
Method: as §1, §2

human Cx46 hemichannels = target: T3, human Cx46 hemichannels (Homo sapiens, UniProt Q9Y6H8); experiment: Cx46-dependent growth complementation assay in LB2003 cells; format: cell-based; settings: for IC50: LB2003-pREP4 cells, NLM + 16 mM KCl, 10 µM IPTG, OD600 after 18 h, mean ± SEM
T3 construct: Details of the human Cx26, Cx43, and Cx46 DNAs used to transform LB2003 cells have been published; expressed in transfected cells; host or cells: E. coli LB2003 (with pREP4), IPTG-induced from pQE60
From the text: The first task is accomplished through the use of defined media. We use Na^+ liquid medium (NLM) and K^+ liquid medium (KLM). NLM is a K^+-free phosphate-buffered medium (see Materials and Methods), whereas KLM is a K^+-rich medium that has the composition of NLM, except for the equimolar replacement of Na^+ with K^+. […] By mixing NLM and KLM it is easy to find a range of low [K^+]s where LB2003 cells expressing connexins grow. To optimize the signal-to-noise ratio we identified the “low” [K^+] at which the connexin-expressing cells grow to the highest absorbance measured at 600 nm (OD600), and then tested the dependence of the growth on the concentration of the expression inducer, isopropyl-β-D-thiogalactopyranoside (IPTG). This is important because the optimal signal-to-noise ratio depends on a balance between sufficient permeability to allow K^+ uptake through HCs and too many active HCs, which inhibits growth as a result of depolarization of the inner membrane and/or unbalanced shifts of ions and metabolites. In the case of Cx26, optimal growth is achieved with 4 mM K^+ and 500 μM IPTG, but for Cx43, 8 mM K^+ and 10 μM IPTG work best. From initial trials, we identified 16 mM K^+ and 10 μM IPTG as the best conditions for the Cx46 growth complementation assay.
This aminoglycoside 3'-phosphotransferase inactivates the AGs in Figure 4 by phosphorylation, allowing us to test for inhibition of connexin-dependent growth complementation without interference by the AG antibiotic effect. The absence of antibiotic effect in the LB2003-pREP4 cells was assayed at an AG concentration of 100 μM in cells grown in KLM (Figure 5). […] We then tested all AGs in Figure 4 for inhibition of connexin-dependent growth in AG-resistant LB2003 cells transformed with the pREP4 plasmid.
Briefly, pQE60 plasmids containing the connexin DNAs and plasmid pREP4 were used for transformation of E. coli LB2003 cells (generously provided by Dr. E.P. Bakker, Osnabrück University, Osnabrück, Germany). The pQE60 plasmids confer resistance to ampicillin, and pREP4 confers resistance to the AGs used in this study. LB2003 cells are missing three key K^+ transporters (Δtrk, Δkup, and Δkdp strains) and as a result cannot grow in low-[K^+] media [22, 23, 25]. Transformed LB2003 cells were stored as a 25% glycerol stock at −80 °C.
Basically, freshly prepared competent LB2003 containing the pREP4 plasmid were transformed with pQE60 (empty plasmid; negative control), pQE-Cx26 (human Cx26 DNA into pQE60), pQE-Cx43 (human Cx43 into pQE60) or pQE-Cx46 (human Cx46 into pQE60).

HCs = tested on: HCs; parameters: method as in PMID 26769242, PMID 25237294; settings: mammalian cells and frog oocytes; cited from earlier work
GJCs = tested on: GJCs; parameters: method as in PMID 26769242, PMID 25237294; settings: cited from earlier work
[1] = tested on: Cx26, Cx43, and Cx46 hemichannels; experiment: Connexin-dependent growth complementation assay, all connexin groups together; format: cell-based, human; settings: 100 μM aminoglycoside, AG-resistant LB2003 cells with pREP4
Method: The absence of antibiotic effect in the LB2003-pREP4 cells was assayed at an AG concentration of 100 μM in cells grown in KLM (Figure 5). […] We then tested all AGs in Figure 4 for inhibition of connexin-dependent growth in AG-resistant LB2003 cells transformed with the pREP4 plasmid.
Basically, freshly prepared competent LB2003 containing the pREP4 plasmid were transformed with pQE60 (empty plasmid; negative control), pQE-Cx26 (human Cx26 DNA into pQE60), pQE-Cx43 (human Cx43 into pQE60) or pQE-Cx46 (human Cx46 into pQE60). After growing overnight in Luria-Bertani (LB) medium (BD, Franklin Lakes, NJ, USA) supplemented with 100 mM KCl (to allow growth) and 0.4 mg/mL ampicillin, the cells were washed four times with NLM, to remove residual potassium from the LB medium, and were resuspended in complementation growth medium to an OD600 of 0.2. NLM contained 46 mM Na2HPO4, 23 mM NaH2PO4, 8 mM (NH4)2SO4, 0.4 mM MgSO4, 0.012 mM FeSO4, 1 mM sodium citrate, 44 mM glucose, and 0.006 mM thiamine hydrochloride, pH 7.0. KLM was identical to NLM except for the equimolar replacement of Na^+ with K^+. For growth-complementation by Cx26, Cx43, and Cx46 in low-[K^+] medium we used NLM + 4 mM KCl, NLM + 8 mM KCl, and NLM + 16 mM KCl, respectively. […] OD600 was measured after 18 h manually for the 24-well plates or in a plate reader for the 96-well plates (Falcon 353072, Corning Inc., Corning, NY, USA). […]

LB2003 cells = experiment: Antibiotic effect on growth of LB2003 cells in KLM; format: cell-based, Escherichia coli; settings: 100 μM, cells grown in KLM
Method: The absence of antibiotic effect in the LB2003-pREP4 cells was assayed at an AG concentration of 100 μM in cells grown in KLM (Figure 5).
All drugs were used at a concentration of 100 μM. The cells were grown in K^+ liquid medium (KLM). […] Data were normalized to the OD600 of LB2003-pREP4 cells in the absence of drug (5.7 ± 0.1).

[2] = tested on: Cx26, Cx43, and Cx46 hemichannels; parameters: method as in PMID 25585383, PMID 27789753; settings: cited from earlier work
[3] = LB2003-pREP4 cells, NLM + 4 mM KCl, 0.5 mM IPTG, OD600 after 18 h, mean ± SEM

T2 sequence (P17302 whole entry): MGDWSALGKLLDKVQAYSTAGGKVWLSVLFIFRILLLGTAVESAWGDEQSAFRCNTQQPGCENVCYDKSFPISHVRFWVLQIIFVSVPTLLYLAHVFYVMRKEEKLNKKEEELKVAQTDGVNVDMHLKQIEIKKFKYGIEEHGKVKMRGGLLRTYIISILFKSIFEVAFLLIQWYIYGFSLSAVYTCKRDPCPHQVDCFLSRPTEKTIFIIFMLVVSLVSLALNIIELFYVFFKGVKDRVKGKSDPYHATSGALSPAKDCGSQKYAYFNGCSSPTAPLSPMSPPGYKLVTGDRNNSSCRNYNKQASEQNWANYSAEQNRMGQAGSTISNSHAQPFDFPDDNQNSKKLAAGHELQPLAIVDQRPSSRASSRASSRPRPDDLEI

CN[C@@H]1[C@@H](O)[C@@H](O[C@@H]2[C@@H](O)[C@H](O[C@H]3O[C@H]([C@@H](C)O)[C@@H](O)[C@H](O)[C@H]3N)[C@@H](N)C[C@H]2N)OC[C@]1(C)O [Geneticin, geneticin]
IC50 (human Cx26 hemichannels; IC50 of Cx26-dependent complementation (Figure 6), Figure 6A, fit of Hill's equation): 0.436 µM

NC[C@H]1O[C@H](O[C@H]2[C@H](O)[C@@H](O[C@H]3O[C@H](CO)[C@@H](O)[C@H](N)[C@H]3O)[C@H](N)C[C@@H]2N)[C@H](N)[C@@H](O)[C@@H]1O [Kanamycin B, kanamycin B]
IC50 (human Cx26 hemichannels; [3]): 3.6 ± 0.9 µM
IC50 (human Cx43 hemichannels): 24 ± 2 µM
IC50 ratio relative to Cx26 for Cx43 (human Cx43 hemichannels; isoform selectivity, Cx43 IC50 / Cx26 IC50): ~ 7
IC50 (human Cx46 hemichannels): 175 ± 9 µM
IC50 ratio relative to Cx26 for Cx46 (human Cx46 hemichannels; isoform selectivity, Cx46 IC50 / Cx26 IC50): ~ 50

NC[C@@H]1O[C@H](O[C@H]2[C@@H](O)[C@H](O[C@@H]3[C@@H](O)[C@H](N)C[C@H](N)[C@H]3O[C@H]3O[C@H](CO)[C@@H](O)[C@H](O)[C@H]3N)O[C@@H]2CO)[C@H](N)[C@@H](O)[C@@H]1O [Paromomycin, paromomycin]
Reduction of Cx26-dependent growth complementation (human Cx26 hemichannels): ~ 80%
IC50 (human Cx26 hemichannels; [3]): 42 ± 9 µM
IC50 (human Cx43 hemichannels): 201 ± 17 µM
Inhibition of Cx46-dependent growth complementation (human Cx46 hemichannels; 200 μM aminoglycoside): 37 ± 4%
IC50 (human Cx46 hemichannels): > 200 µM

CNC(C)C1CCC(N)C(OC2C(N)CC(N)C(OC3OCC(C)(O)C(NC)C3O)C2O)O1 (stereo not drawn) [gentamicin]
Effect on HCs (HCs): inhibits HCs reversibly
Effect on GJCs (GJCs): does not affect GJCs

NC[C@H]1O[C@H](O[C@H]2[C@H](O[C@@H]3O[C@H](CO)[C@@H](O)[C@H]3O)[C@@H](O)[C@H](N)C[C@@H]2N)[C@H](N)[C@@H](O)[C@@H]1O [ribostamycin]
Reduction of Cx26-dependent growth complementation (human Cx26 hemichannels): 35 ± 3%
Effect on Cx43-dependent growth complementation (inhibition) (human Cx43 hemichannels; 100 μM aminoglycoside): −8 ± 5%
Inhibition of connexin-dependent growth [1]: only a marginal effect

kanamycin A
Growth of AG-sensitive LB2003 cells (no pREP4) (LB2003 cells): prevented growth
Effect on HCs in LB2003 cell growth assay [2]: inhibited HCs
